Four compounds from ChEMBL document CHEMBL1150976, “The selectivity of protein kinase inhibitors: a further update” (Biochem J, 2007) can be followed below.

In assay [1] the target is T1, Serine/threonine-protein kinase Nek2 (Homo sapiens) (UniProt P51955).
T1 sequence (whole entry): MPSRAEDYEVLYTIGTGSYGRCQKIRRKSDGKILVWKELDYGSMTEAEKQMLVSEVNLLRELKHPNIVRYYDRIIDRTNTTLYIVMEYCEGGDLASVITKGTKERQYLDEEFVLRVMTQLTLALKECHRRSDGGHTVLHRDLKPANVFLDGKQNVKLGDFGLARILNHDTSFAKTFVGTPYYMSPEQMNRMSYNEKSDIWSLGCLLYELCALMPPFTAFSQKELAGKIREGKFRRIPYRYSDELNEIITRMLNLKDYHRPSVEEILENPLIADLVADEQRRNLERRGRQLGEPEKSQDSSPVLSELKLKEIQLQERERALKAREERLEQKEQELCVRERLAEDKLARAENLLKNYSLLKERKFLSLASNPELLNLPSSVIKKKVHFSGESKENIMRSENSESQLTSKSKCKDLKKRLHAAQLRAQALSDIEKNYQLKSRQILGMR
The assay can be described thus: Percentage NEK2a activity remaining in the presence of 0.01uM inhibitor.

Assay [2] has as its target Calcium/calmodulin-dependent protein kinase type 1 (Homo sapiens) (UniProt Q14012). The assay can be described thus: Percentage CaMK1 activity remaining in the presence of 25uM inhibitor.
In assay [3] the target is Dual specificity tyrosine-phosphorylation-regulated kinase 1A (Homo sapiens) (UniProt Q13627). The assay can be described thus: Percentage DYRK1A activity remaining in the presence of 25uM inhibitor.
Assay [4] addresses Serine/threonine-protein kinase Chk2 (Homo sapiens) (UniProt O96017). The assay can be described thus: Percentage CHK2 activity remaining in the presence of 25uM inhibitor.
Assay [5] concerns the target T2, Serine/threonine-protein kinase Sgk1 (Homo sapiens) (UniProt O00141).
T2 sequence (whole entry): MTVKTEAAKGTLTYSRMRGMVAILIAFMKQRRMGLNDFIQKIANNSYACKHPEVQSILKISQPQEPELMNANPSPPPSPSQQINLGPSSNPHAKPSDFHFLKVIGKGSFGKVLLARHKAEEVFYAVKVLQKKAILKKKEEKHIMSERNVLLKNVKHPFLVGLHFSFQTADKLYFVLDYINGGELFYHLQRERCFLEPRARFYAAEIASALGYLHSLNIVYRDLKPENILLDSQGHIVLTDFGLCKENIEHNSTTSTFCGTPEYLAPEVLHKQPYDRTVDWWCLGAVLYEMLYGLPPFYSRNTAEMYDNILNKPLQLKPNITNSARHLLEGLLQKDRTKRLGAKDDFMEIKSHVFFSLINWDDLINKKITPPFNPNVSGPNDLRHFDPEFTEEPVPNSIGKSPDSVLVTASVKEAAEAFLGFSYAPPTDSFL
The assay can be described thus: Percentage SGK1 activity remaining in the presence of 25uM inhibitor.

In assay [6] the target is Mitogen-activated protein kinase 11 (Homo sapiens) (UniProt Q15759). Briefly: Percentage p38beta activity remaining in the presence of 25uM inhibitor.
Mitogen-activated protein kinase 11 (Homo sapiens), sequence (Q15759 whole entry): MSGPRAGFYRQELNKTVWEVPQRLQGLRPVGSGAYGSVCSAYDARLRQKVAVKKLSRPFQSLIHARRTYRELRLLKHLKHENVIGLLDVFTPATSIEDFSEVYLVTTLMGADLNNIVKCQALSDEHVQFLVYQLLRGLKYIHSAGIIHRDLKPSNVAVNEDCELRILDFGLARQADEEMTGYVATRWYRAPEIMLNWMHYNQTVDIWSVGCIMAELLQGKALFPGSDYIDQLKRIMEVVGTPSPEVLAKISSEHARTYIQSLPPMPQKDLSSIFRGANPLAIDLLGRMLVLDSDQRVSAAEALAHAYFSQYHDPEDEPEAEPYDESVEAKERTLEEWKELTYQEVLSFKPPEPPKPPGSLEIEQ
Assay [7] addresses MAP/microtubule affinity-regulating kinase 3 (Homo sapiens) (UniProt P27448). Briefly: Percentage MARK3 activity remaining in the presence of 25uM inhibitor.
Assay [8] concerns the target T3, Inhibitor of nuclear factor kappa-B kinase subunit beta (Homo sapiens) (UniProt O14920).
T3 sequence (whole entry): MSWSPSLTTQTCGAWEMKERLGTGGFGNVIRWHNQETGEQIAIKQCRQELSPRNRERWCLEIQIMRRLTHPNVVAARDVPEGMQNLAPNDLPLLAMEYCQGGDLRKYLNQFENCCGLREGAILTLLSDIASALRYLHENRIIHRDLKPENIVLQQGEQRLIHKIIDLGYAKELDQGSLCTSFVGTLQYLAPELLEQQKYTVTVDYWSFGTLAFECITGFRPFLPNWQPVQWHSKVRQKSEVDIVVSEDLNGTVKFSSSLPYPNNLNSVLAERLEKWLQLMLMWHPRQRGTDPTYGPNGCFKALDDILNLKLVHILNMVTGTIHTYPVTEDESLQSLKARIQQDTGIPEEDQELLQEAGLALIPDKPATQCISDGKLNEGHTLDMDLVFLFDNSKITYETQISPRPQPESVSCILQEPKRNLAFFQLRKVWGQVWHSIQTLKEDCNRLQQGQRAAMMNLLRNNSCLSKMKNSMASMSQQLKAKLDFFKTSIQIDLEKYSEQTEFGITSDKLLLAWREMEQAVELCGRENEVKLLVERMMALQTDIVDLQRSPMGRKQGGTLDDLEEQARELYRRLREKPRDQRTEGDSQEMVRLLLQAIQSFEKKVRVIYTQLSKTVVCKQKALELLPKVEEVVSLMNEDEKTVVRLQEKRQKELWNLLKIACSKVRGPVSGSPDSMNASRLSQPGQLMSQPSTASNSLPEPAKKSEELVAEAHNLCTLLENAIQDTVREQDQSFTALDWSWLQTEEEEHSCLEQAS
The assay can be described thus: Percentage IKK-beta activity remaining in the presence of 25uM inhibitor.

Assay [9] has as its target Homeodomain-interacting protein kinase 3 (Homo sapiens) (UniProt Q9H422). The assay can be described thus: Percentage HIPK3 activity remaining in the presence of 25uM inhibitor.
Assay [10] concerns the target T4, Mitogen-activated protein kinase 12 (Homo sapiens) (UniProt P53778).
T4 sequence (whole entry): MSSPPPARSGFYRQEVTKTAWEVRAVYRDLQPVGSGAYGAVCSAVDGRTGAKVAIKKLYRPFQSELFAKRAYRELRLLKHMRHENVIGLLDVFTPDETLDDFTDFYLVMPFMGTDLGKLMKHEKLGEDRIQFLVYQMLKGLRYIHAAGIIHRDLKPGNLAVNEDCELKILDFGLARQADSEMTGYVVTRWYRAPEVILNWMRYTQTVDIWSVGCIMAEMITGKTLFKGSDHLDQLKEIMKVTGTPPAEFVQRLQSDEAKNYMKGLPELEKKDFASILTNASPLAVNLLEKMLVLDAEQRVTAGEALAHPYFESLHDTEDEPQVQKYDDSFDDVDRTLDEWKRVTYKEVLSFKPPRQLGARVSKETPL
The assay can be described thus: Percentage p38-gamma activity remaining in the presence of 25uM inhibitor.

Assay [11] has as its target T5, Mitogen-activated protein kinase 13 (Homo sapiens) (UniProt O15264).
T5 sequence (whole entry): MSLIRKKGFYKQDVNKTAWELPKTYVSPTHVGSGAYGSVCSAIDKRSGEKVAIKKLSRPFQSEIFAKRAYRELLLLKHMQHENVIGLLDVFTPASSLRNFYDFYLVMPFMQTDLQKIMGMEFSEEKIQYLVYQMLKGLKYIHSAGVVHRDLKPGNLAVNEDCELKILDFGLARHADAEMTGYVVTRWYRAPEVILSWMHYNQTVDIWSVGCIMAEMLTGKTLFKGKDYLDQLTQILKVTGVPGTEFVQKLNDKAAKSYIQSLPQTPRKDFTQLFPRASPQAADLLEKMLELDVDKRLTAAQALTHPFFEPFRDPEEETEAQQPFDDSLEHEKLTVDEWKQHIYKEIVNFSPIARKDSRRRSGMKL
Briefly: Percentage p38delta activity remaining in the presence of 25uM inhibitor.

In assay [12] the target is Calcium/calmodulin-dependent protein kinase kinase 2 (Homo sapiens) (UniProt Q96RR4). Briefly: Percentage CaMKKbeta activity remaining in the presence of 25uM inhibitor.
Calcium/calmodulin-dependent protein kinase kinase 2 (Homo sapiens), sequence (Q96RR4 2-588 limits assumed): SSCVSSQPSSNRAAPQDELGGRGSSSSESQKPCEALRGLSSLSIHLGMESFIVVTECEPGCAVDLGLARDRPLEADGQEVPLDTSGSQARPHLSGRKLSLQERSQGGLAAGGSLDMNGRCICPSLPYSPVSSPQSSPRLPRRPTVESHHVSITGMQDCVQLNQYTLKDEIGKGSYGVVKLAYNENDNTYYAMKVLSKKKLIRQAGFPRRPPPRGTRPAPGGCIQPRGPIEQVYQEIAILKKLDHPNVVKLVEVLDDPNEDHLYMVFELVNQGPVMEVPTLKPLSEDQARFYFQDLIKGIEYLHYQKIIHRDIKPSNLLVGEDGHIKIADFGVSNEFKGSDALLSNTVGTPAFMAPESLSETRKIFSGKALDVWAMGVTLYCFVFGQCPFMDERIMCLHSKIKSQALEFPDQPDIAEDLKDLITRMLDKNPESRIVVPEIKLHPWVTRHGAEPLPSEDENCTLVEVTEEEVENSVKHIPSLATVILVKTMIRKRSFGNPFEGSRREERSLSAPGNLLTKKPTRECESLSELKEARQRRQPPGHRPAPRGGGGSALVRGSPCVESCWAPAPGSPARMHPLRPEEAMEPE

Structures are written as SMILES.

Serine/threonine-protein kinase Chk2 (Homo sapiens), sequence (O96017 whole entry): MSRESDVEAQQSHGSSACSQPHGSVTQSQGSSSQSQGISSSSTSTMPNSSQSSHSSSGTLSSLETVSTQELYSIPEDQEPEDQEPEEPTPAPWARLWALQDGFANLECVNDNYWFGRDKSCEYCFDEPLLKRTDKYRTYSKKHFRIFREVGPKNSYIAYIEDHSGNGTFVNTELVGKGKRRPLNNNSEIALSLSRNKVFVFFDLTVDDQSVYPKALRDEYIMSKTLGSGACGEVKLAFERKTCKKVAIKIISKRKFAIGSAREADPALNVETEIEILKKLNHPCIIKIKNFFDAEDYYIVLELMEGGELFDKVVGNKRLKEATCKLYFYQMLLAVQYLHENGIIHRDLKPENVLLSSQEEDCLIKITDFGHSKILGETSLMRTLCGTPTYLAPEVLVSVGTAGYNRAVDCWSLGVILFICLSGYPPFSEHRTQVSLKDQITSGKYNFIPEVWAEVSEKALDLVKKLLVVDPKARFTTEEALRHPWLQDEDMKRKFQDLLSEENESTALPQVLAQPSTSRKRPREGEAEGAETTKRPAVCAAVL
Calcium/calmodulin-dependent protein kinase type 1 (Homo sapiens), sequence (Q14012 whole entry, looked up): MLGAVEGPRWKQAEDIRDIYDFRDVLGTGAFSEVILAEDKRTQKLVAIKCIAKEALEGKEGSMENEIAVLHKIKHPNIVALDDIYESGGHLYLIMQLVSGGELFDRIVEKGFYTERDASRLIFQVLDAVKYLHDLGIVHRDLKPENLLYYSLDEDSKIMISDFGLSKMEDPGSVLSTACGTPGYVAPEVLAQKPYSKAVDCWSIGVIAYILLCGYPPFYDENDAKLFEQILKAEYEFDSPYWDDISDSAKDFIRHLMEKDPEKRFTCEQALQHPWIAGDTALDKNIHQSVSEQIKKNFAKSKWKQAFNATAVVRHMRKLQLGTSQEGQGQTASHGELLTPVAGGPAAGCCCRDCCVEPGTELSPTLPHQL
Homeodomain-interacting protein kinase 3 (Homo sapiens), sequence (Q9H422 whole entry, looked up): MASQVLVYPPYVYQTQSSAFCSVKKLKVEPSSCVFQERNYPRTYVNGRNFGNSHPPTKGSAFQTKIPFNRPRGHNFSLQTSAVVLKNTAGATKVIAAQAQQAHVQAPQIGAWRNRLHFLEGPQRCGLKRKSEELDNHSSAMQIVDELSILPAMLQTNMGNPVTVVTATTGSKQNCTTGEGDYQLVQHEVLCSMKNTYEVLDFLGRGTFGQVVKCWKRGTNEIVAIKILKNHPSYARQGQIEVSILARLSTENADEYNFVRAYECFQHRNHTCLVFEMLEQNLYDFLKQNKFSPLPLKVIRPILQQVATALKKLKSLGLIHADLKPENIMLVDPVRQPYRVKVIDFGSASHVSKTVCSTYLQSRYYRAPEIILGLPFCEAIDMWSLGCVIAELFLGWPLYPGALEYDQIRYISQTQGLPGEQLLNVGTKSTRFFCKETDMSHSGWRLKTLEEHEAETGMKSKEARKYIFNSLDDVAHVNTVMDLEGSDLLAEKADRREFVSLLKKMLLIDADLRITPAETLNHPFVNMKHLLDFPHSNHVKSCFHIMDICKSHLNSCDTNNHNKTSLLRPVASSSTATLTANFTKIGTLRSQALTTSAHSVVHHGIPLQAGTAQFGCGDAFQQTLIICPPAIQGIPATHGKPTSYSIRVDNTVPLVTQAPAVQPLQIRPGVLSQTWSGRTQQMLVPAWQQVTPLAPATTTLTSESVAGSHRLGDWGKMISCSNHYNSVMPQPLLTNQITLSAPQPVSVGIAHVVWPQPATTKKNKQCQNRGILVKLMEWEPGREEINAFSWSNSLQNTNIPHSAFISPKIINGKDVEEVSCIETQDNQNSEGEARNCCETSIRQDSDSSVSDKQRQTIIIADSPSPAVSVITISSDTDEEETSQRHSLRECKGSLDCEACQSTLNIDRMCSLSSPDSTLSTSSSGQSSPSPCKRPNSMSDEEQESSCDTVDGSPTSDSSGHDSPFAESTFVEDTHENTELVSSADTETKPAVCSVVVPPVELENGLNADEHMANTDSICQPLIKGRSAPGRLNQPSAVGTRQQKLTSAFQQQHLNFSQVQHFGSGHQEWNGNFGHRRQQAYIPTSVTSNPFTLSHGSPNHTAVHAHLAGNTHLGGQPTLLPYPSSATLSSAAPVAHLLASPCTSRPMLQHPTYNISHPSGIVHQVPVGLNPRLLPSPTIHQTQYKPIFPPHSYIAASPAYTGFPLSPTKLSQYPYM
MAP/microtubule affinity-regulating kinase 3 (Homo sapiens), sequence (P27448 whole entry, looked up): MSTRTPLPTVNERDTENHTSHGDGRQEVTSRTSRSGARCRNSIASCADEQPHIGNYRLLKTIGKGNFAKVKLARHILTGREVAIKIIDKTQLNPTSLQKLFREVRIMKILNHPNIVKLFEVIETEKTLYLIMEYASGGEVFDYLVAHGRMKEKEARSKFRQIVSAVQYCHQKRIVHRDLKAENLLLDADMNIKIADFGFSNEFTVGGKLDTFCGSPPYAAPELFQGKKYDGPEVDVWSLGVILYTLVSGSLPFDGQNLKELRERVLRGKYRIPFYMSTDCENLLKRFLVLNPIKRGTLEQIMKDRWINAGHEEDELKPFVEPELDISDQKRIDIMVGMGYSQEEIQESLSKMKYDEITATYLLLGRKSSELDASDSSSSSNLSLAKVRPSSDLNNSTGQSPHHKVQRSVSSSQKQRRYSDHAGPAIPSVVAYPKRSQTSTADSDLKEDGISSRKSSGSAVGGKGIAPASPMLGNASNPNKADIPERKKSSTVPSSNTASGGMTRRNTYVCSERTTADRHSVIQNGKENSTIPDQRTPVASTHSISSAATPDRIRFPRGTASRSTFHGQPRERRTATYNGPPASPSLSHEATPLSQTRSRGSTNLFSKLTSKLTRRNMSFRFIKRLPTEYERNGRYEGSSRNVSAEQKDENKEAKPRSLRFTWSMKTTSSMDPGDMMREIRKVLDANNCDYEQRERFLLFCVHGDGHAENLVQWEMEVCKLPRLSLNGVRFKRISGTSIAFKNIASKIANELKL

For `O=C(NCCCNc1nc(Nc2cccc(NC(=O)N3CCCC3)c2)ncc1I)c1cccs1`, the Activity in assay [1] was 92%.

On to `COc1cc(OC)c(/C=C2/C(=O)Nc3ccccc32)c(OC)c1`, for which the Activity in assay [2] was determined as 55%; in [3], 73%; in [4], 76%; in assay [5], 79%; in assay [6], 97%; in assay [7], 88%. Further, the Activity was determined as 90% in assay [8]; 95% in assay [9]; 93% in assay [10]; 91% in assay [11]; 86% in [12].

For the compound `CN[C@@H]1C[C@H]2O[C@@](C)([C@@H]1OC)n1c3ccccc3c3c4c(c5c6ccccc6n2c5c31)C(=O)N[C@H]4O` (stereo in doubt), the Activity in [1] was 85%.

As for `NCCNS(=O)(=O)c1ccc(Cl)c2ccncc12`, the Activity in assay [2] was 82%; in [3] (filed as antagonist), 39%; in assay [4] it was 64%; in [5] (filed as antagonist), 25%; in [6], 101%; in [7], 78%. Besides, the Activity is 87% in assay [8]; 86% in assay [9]; 102% in assay [10]; 80% in assay [11]; 86% in assay [12].
